Results on two compounds are retold here after paper PMC9920413, “New Bicyclic Pyridine-Based Hybrids Linked to the 1,2,3-Triazole Unit: Synthesis via Click Reaction and Evaluation of Neurotropic Activity and Molecular Docking” (Molecules, 2023).

Data set [1] deals with thiosemicarbazide (TSC)-induced convulsions. Briefly: Thiosemicarbazide (TSC) seizures. The data set is classed as in vivo, mice. The settings on record: mice; for response vs control in vivo at 100 mg/kg: Mus musculus, ip, compound 100 mg/kg i.p., relative to control = 1.0, read-out: Latency of Convulsions, Induced by TSC, I (index of latent period of TSC seizures); for Latency of Convulsions, Induced by TSC, M ± M: compound 100 mg/kg i.p. 45 min before TSC 18 mg/kg s.c. Here is the method: (§1) The study of the anticonvulsant activity of hybrids 7a–u was assessed by evaluating the antagonism to pentylenetetrazole (PTZ), thiosemicarbazide convulsive seizures, and maximal electroshock-induced seizures (MES). The PTZ-induced test is considered an experimental model for the clonic component of epilepsy seizures and the prognostic anxiolytic activity of the compounds. PTZ is a common convulsive agent used in animal models to investigate the mechanisms of seizures. The model of thiosemicarbazide (TSC) seizures (affecting the exchange of GABA) causes clonic seizures similar to pentylenetetrazole ones. The MES test is used as an animal model for the generalization of tonic seizures in epilepsy. The neurotoxicity and side effects of the compounds (movement coordination disorder, myorelaxation, and ataxia) were also studied on mice with the “rotating rod”[29] test.
Thiosemicarbazide, an antimetabolite of GABA inhibitor (glutamic acid decarboxylase) in the brain, is administered subcutaneously to mice at a dose of 18 mg/kg as a 0.5% solution, which causes clonic convulsions in animals. Anti-thiosemicarbazide activity was evaluated based on the latency time of the onset of seizures. Compounds were administered intraperitoneally at doses of 100 mg/kg in suspension with carboxymethylcellulose and Tween-80 45 min before administration of thiosemicarbazide.

The test system of data set [2] is pentylenetetrazole (PTZ)-induced convulsions. Briefly: Antagonism to pentylenetetrazole (PTZ) convulsions. The format is in vivo. To be noted: for ED50: Mus musculus, mice, i.p. 45 min before PTZ 90 mg/kg s.c., confidence limits in brackets, p = 0.05, read-out: ED50 (by PTZ antagonism); for TI: therapeutic index TI = LD50/ED50. As for the experimental part:
as §1
The anticonvulsant effect of the newly synthesized compounds was investigated by tests comprising pentylenetetrazole, thiosemicarbazide convulsions, and maximal electroshock (MES). Outbred mice (weight 18–22 g) were used for the study. […] Each animal is placed into an individual plastic cage for observation lasting 1 h. Seizures and clonic convulsions were recorded. […] The control animals were administered as an emulsifier. Every dose of each test compound was studied in six animals.
(§2) Adverse neurotoxic (muscle relaxant) effects of compounds were studied at doses of 50 to 500 mg/kg when administered intraperitoneally, as well as reference drugs in effect at anticonvulsant doses. Myorelaxation was investigated with the test of a “rotating rod” in mice. To this end, mice were planted on a metal rod with a corrugated rubber coating, which rotated at a speed of 5 revolutions per minute. The number of animals that cnot stay on it for 2 min was determined. To determine the ED50, neurotoxic TD50, and LD50, the statistical method of penetration by Litchfield and Wilcoxon was used.

The subject of the next data set is mice. Briefly: Forced swimming test.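 On all read-outs here: mice made to swim in a water-filled glass vessel under natural light, with durations of active swimming and immobility recorded across the 6 min session.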 The settings on record: 50 mg/kg, 6 min; for Total Time of Immobilization: control 42.0 ± 7.24; for Total Time of Active Swimming: control 318.0 ± 8.36.
A further data set has as its system rats. In words: Open field test. The data set is classed as in vivo. The settings on record: 50 mg/kg i.p.; for Cells Examination, amount (absolute data during 5 min): control 2.4 ± 0.67; for Vertical Displacement, amount (absolute data during 5 min): control 7.0 ± 2.14; for Horizontal Displacement, amount (absolute data during 5 min): control 21.6 ± 2.25. As for the experimental part: Open field test. The research-motor behavior of rats was studied on a modified “open field” model. For this purpose, an installation was used, the bottom of which is divided into squares with holes (cells). Experiments were performed in the daytime with natural light. Within 5 min of the experiment, the indicators of sedative and activating behavior were determined, namely the number of horizontal movements, standing on the hind legs (vertical movements), and sniffing of the cells. The number of animals on this model was eight for each compound, control, and reference drug.

The subject of the next data set is mouse. Briefly: Elevated plus maze (EPM) test. The format is in vivo. The settings on record: 50 mg/kg i.p., 5 min; for Time Spent in the Open Arms: control 2.6 ± 1.6; for Number of Entries into the Closed Arms: control 9.4 ± 1.6; for Time Spent in the Center: control 28.2 ± 3.12; for Time Spent in Closed Arms: control 269.2 ± 10.4. An excerpt: Elevated plus maze—EPM test. Anti-anxiety and sedative effects were studied on mouse a model of the “elevated plus maze”. The labyrinth is a cruciform machine raised above the floor, with a pair of open and closed sleeves opposed to each other. Normal animals prefer to spend most of their time in the closed (dark) sleeves of the labyrinth. The anxiolytic effect of the compounds was estimated by the increase in the number of entries into open (light) sleeves and the time spent in them without increasing the total motor activity. This records the time spent in the closed sleeve and the number of attempts to enter the installation center. In the above model, the test compounds and the reference drug were injected intraperitoneally before the experiments. The control animals were administered as an emulsifier. Results were processed statistically (p < 0.05).

A short description of data set [3]: Rotating rod test (neurotoxicity, myorelaxation). The data set is classed as in vivo. The settings on record: outbred, mouse, in vivo, ip, mice, myorelaxation in 50% of animals. As for the experimental part:
as §1, §2

A further data set in a line: in vivo. The settings on record: outbred, mouse, in vivo; mice, dead animals after 24 h. Here is the method:
as §2

Method for mice: Forced swimming test. To assess “despair and depression”, the “compelling swimming” model was used. Experimental animals were forced to swim in a glass container (height 22 cm, diameter 14 cm), filled 1/3 with water. […] The latent period of immobilization, the total duration of active swimming and immobilization are fixed at 6 min (the experiments were conducted under natural light).

Consider `CCCc1nc(N2CCN(C(=O)Cn3cc(COc4nc(C)c5c(c4C#N)CC(C)(C)OC5)nn3)CC2)c(C#N)c2c1COC(C)(C)C2` [7o], for which, in data set [1], the response vs control in vivo at 100 mg/kg was found to be 304% and the “Latency of Convulsions, Induced by TSC, M ± M” value was 30.4 ± 1.1 min. In data set [2], the 50% effective dose (ED50) (usually the midpoint of the dose-response relation) was 28 mg/kg and the TI is on record as 28.6. In the data set with mice, the “Total Time of Immobilization” value was found to be 2.0 ± 0.4 s and the “Total Time of Active Swimming” value was 358.0 ± 12.0 s. Moreover, in the data set with rats, the “Cells Examination, amount (absolute data during 5 min)” value amounted to 8.6 ± 3.25; the “Vertical Displacement, amount (absolute data during 5 min)” value was 9.6 ± 3.89; the “Horizontal Displacement, amount (absolute data during 5 min)” value is listed as 73.0 ± 13.37. Besides, in the data set with mouse, the “Time Spent in the Open Arms” value amounted to 10.0 ± 2.78 s, the “Number of Entries into the Closed Arms” value worked out at 5.8 ± 1.03, the “Time Spent in the Center” value came out at 61.0 ± 3.68 s and the “Time Spent in Closed Arms” value came out at 229.0 ± 11.2 s. In addition, in data set [3], the TD50 (as a rule, the dose at which the toxic effect under study appears in half of the subjects) at 2 min was above 500 mg/kg. Moreover, the LD50 (commonly the dose expected to kill half of the subjects tested) at 24 h in “in vivo” came to 800 mg/kg.

For `CCc1nc(N2CCN(C(=O)Cn3cc(COc4nc(C(C)C)c5c(c4C#N)CCCC5)nn3)CC2)c(C#N)c2c1COC(C)(C)C2` [7h], in data set [1], the response vs control in vivo at 100 mg/kg turned out to be 150% and the “Latency of Convulsions, Induced by TSC, M ± M” value turned out to be 15.2 ± 1.2 min. Further, in data set [2], the 50% effective dose (ED50) was determined as 27 mg/kg and the TI was found to be 26.7. Further, in the data set on mice, the “Total Time of Immobilization” value is listed as 2.0 ± 0.8 s and the “Total Time of Active Swimming” value amounted to 358.0 ± 8.2 s. For the same compound, in the data set on rats, the “Cells Examination, amount (absolute data during 5 min)” value was 6.8 ± 3.12; the “Vertical Displacement, amount (absolute data during 5 min)” value turned out to be 6.0 ± 0.89; the “Horizontal Displacement, amount (absolute data during 5 min)” value is 63.8 ± 14.02. Further, in the data set on mouse, the “Time Spent in the Open Arms” value was 30.0 ± 2.4 s, the “Number of Entries into the Closed Arms” value worked out at 4.8 ± 1.34, the “Time Spent in the Center” value worked out at 28.4 ± 2.38 s and the “Time Spent in Closed Arms” value was found to be 246.6 ± 21.9 s. This compound also had a TD50 at 2 min in data set [3] above 500 mg/kg. In “in vivo”, this compound came in with an LD50 at 24 h of 720 mg/kg.
